For orientation: pIC50 means the IC50 on a negative log10 scale, so that one unit is a factor of ten. A higher pIC50 goes with a small IC50.

pIC50: −log10 of the molar value.

This is an account of results in patent US20080188483A1, “Compounds and Compositions as Protein Kinase Inhibitors” (IRM LLC, priority 2006, published 2008).

Experiment [1] concerns the target T1, FGFR3 (Ba/F3-TEL-FGFR3 cells) (Homo sapiens, UniProt P22607).
T1 construct: expressed in transfected cells; host or cells: Ba/F3; the other entry of the earlier key: ETV6 (P41212, Transcription factor ETV6)
As to the kind of experiment: FGFR3 cellular assay (Ba/F3-TEL-FGFR3 proliferation). The class given is cell-based. How it is done:
Compounds of the invention are tested for their ability to inhibit transformed Ba/F3-TEL-FGFR3 cells proliferation, which is depended on FGFR3 cellular kinase activity. Ba/F3-TEL-FGFR3 are cultured up to 800,000 cells/mL in suspension, with RPMI 1640 supplemented with 10% fetal bovine serum as the culture medium. Cells are dispensed into 384-well format plate at 5000 cell/well in 50 μL culture medium. Compounds of the invention are dissolved and diluted in dimethylsulfoxide (DMSO). Twelve points 1:3 serial dilutions are made into DMSO to create concentrations gradient ranging typically from 10 mM to 0.05 μM. Cells are added with 50 nL of diluted compounds and incubated for 48 hours in cell culture incubator. AlamarBlue® (TREK Diagnostic Systems), which can be used to monitor the reducing environment created by proliferating cells, are added to cells at final concentration of 10%. After additional four hours of incubation in a 37° C. cell culture incubator, fluorescence signals from reduced AlamarBlue® (Excitation at 530 nm, Emission at 580 nm) are quantified on Analyst GT (Molecular Devices Corp.). IC50 values are calculated by linear regression analysis of the percentage inhibition of each compound at 12 concentrations.

The target in experiment [2] is T2, purified FGFR3 (Upstate) (Homo sapiens, UniProt P22607).
T2 construct: purchased Upstate
As to the kind of experiment: FGFR3 enzymatic assay (HTRF). The class given is biochemical. As for the experimental part: Kinase activity assay with purified FGFR3 (Upstate) is carried out in a final volume of 10 μL containing 0.25 μg/mL of enzyme in kinase buffer (30 mM Tris-HCl pH7.5, 15 mM MgCl2, 4.5 mM MnCl2, 15 μM Na3VO4 and 50 μg/mL BSA), and substrates (5 μg/mL biotin-poly-EY(Glu, Tyr) (CIS-US, Inc.) and 3 μM ATP). Two solutions are made: the first solution of 5 μl contains the FGFR3 enzyme in kinase buffer was first dispensed into 384-format ProxiPlate® (Perkin-Elmer) followed by adding 50 nL of compounds dissolved in DMSO, then 5 μl of second solution contains the substrate (poly-EY) and ATP in kinase buffer was added to each wells. The reactions are incubated at room temperature for one hour, stopped by adding 10 μL of HTRF detection mixture, which contains 30 mM Tris-HCl pH7.5, 0.5 M KF, 50 mM ETDA, 0.2 mg/mL BSA, 15 μg/mL streptavidin-XL665 (CIS-US, Inc.) and 150 ng/mL cryptate conjugated anti-phosphotyrosine antibody (CIS-US, Inc.). After one hour of room temperature incubation to allow for streptavidin-biotin interaction, time resolved florescent signals are read on Analyst GT (Molecular Devices Corp.). IC50 values are calculated by linear regression analysis of the percentage inhibition of each compound at 12 concentrations (1:3 dilution from 50 μM to 0.28 nM).

T2 sequence (P22607 23-806): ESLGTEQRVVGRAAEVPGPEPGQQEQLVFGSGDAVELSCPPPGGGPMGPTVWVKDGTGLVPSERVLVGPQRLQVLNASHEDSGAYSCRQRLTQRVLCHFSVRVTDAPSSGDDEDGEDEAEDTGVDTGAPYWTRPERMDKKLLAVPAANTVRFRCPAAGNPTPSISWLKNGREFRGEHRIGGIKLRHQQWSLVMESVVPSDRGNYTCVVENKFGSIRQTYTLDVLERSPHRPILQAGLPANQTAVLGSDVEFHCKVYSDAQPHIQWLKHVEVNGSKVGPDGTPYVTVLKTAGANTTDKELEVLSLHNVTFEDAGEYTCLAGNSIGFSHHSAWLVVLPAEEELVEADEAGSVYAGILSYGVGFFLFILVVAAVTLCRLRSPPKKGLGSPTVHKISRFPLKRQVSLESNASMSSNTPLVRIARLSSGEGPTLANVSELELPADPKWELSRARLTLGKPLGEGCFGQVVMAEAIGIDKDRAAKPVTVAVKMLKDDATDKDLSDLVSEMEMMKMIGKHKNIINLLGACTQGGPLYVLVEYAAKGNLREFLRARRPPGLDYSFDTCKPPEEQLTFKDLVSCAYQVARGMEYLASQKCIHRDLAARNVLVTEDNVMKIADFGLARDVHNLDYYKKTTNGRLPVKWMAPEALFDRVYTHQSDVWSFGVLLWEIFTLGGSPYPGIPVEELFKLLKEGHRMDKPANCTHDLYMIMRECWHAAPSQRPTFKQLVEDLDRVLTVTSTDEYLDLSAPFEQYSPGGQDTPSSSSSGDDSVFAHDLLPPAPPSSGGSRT
T1 sequence (P22607 472-761 limits assumed): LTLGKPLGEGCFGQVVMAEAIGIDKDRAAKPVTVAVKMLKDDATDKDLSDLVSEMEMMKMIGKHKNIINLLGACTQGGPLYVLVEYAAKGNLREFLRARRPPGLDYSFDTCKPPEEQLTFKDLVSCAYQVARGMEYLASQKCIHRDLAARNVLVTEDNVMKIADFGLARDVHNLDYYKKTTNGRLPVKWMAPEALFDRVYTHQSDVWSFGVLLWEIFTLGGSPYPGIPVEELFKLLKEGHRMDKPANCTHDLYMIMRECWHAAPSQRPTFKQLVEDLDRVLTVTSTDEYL

As to `CCN1CCN(Cc2ccc(NC(=O)c3cc(Nc4nccn4-c4ncnc5[nH]ccc45)cc(OC)c3)cc2C(F)(F)F)CC1` [Compound 9, N-[4-(4-ethyl-piperazin-1-ylmethyl)-3-trifluoromethyl-phenyl]-3-methoxy-5-[1-(7H-pyrrolo[2,3-d]pyrimidin-4-yl)-1H-imidazol-2-ylamino]-benzamide], the pIC50 in experiment [1] is 7.40; in experiment [2], 8.40.
